Measured values taken from patent US20060009480A1, “Sinomenine and sinomenine compounds, synthesis and use” (priority 2002, published 2006).

Experiments:
Wistar rat [1] = experiment: Social recognition in the Wistar rat; assay type: in vivo; conditions: dose of 20 mg/kg (printed for Example 13); second encounter after 2 hours
Source text: Initially described in 1982 by THOR and HOLLOWAY (J. Comp. Physiol., 1982, 96, 1000-1006), the social recognition test has subsequently been proposed by various authors (DANTZER et al., Psychopharmacology, 1987, 91, 363-368; PERIO et al., Psychopharmacology, 1989, 97, 262-268) for studying the mnemocognitive effects of new compounds. The test is based on the natural expression of the olfactory memory of the rat and its natural tendency to forget, and allows evaluation of memorisation, by recognition of a young congeneric animal, by an adult rat. A young rat (21 days), taken at random, is placed for 5 minutes in the cage housing an adult rat. With the aid of a video device, the experimenter observes the social recognition behaviour of the adult rat and measures its overall duration. The young rat is then removed from the adult rat's cage and is placed in its own cage until the second introduction. The adult rat is given the compound under test and, after 2 hours, is again brought into the presence (5 minutes) of the young rat. The social recognition behaviour is then observed again and its duration measured. The assessment criterion is the difference (T2−T1), expressed in seconds, between the “recognition” times of the 2 encounters.

NaNO2 induced anoxia = NaNO2 induced anoxia in mice; assay type: in vivo, mouse; conditions: 70 mg/kg p.o.; NaNO2 225 mg/kg ip
Wistar rat [2] = experiment: Object recognition in the Wistar rat; assay type: in vivo; conditions: dose of 3 mg/kg; second session 24 hours later
Source text: The object recognition test in the Wistar rat was initially developed by ENNACEUR and DELACOUR (Behav. Brain Res., 1988, 31, 47-59). The test is based on the spontaneous exploratory activity of the animal and has the characteristics of episodic memory in humans. This memory test is sensitive to ageing (SCALI et al., Eur. J. Pharmacol., 1997, 325, 173-180) and to cholinergic dysfunctions (BARTOLINI et al., Pharm. Biochem. Behav. 1996, 53(2), 277-283) and is based on the differences in the exploration of 2 objects of fairly similar shape—one familiar, the other new. Prior to the test, the animals are habituated to the environment (an enclosure without an object). In the course of a first session, the rats are placed (3 minutes) in the enclosure, in which there are 2 identical objects. The duration of exploration is measured for each object. In the course of the second session (3 minutes), 24 hours later, 1 of the 2 objects is replaced by a new object. The duration of exploration is measured for each object. The assessment criterion is the difference, Delta, expressed in seconds, between the exploration times for the new object and for the familiar object in the course of the second session.

`CCC(=O)Oc1c(OC)cc(Cl)c2c1C13CCN(C)C(C2)C1C=C(OC)C(OC(=O)CC)C3` (stereo not drawn) [Example 5, (9α,13α)-1-Chloro-3,7-dimethoxy-17-methyl4-(propionyloxy)7,8-didehydromorphinan-6-yl propionate] was tested, and the “difference (T2−T1) between the recognition times of the 2 encounters” value (Wistar rat [1]) was -31 s and the prolongation of survival (NaNO2 induced anoxia) was 31%.

For `COC1=CC2C3Cc4c(Cl)cc(OC)c(O)c4C2(CCN3C)CC1O` (stereo not drawn) [Example 4, (9α,13α)-1-Chloro-3,7-dimethoxy-17-methyl-7,8-didehydromorphinan-4,6-diol], the “difference, Delta, between the exploration times for the new object and the familiar object” value (Wistar rat [2]) was 10 s.

For `COC1=CC2C3Cc4c(Br)cc(OC)c(O)c4C2(CCN3C)CC1O` (stereo not drawn) [Example 13, (9α,13α)-1-Bromo-3,7-dimethoxy-17-methyl-7,8-didehydromorphinan-4,6-diol], the “difference (T2−T1) between the recognition times of the 2 encounters” value (Wistar rat [1]) was -36 s.
